These results are taken from patent US6525001B1, “Substituted pyrimidine and pyridine herbicides” (Mid-American Commercialization Corporation, priority 1997, dated 2003).

Common to all, as to assay type: in vivo
The test system of experiment [1] is chickweed (Stellaria media). The experiment can be described thus: Test D. The arrangement: key: 0 is no effect; 100 is complete control. The note with it: POSTEMERGENCE
The procedure:
(§1) Compounds evaluated in this test were formulated in a non-phytotoxic solvent mixture which included a surfactant and applied to plants that were in the 1- to 4-leaf stage (postemergence application). A mixture of sandy loam soil and greenhouse potting mix in a 60:40 ratio was used for the postemergence test.
(§2) Plantings of these crops and weed species were adjusted to produce plants of appropriate size for the postemergence test. All plant species were grown using normal greenhouse practices. Crop and weed species include alfalfa (Medicago sativa), annual bluegrass (Poa annua), blackgrass (Alopecurus myosuroides), black nightshade (Solanum nigra), chickweed (Stellaria media), common poppy (Papaver rhoeas), deadnettle (Lamium amplexicaule), downy brome (Bromus tectorum), field violet (Viola arvensis), galium 2 (Galium aparine), green foxtail (Setaria viridis), Italian ryegrass (Lolium multiflorum), jointed goatgrass (Aegilops cylindrica), kochia (Kochia scoparia), lambsquarters (Chenopodium album), lentil (Lens culinaris), littleseed canarygrass (Phalaris minor), pea (Pisum sativum), potato (Solanum tuberosum), rape (Brassica napus), redroot pigweed (Amaranthus retroflexus), Russian thistle (Salsola kali), scentless chamomile (Matricaria inodora), sorghum (Sorghum vulgare), spring barley (Hordeum vulgare), sugar beet (Beta vulgaris), sunflower (Helianthus annuus), ivyleaf speedwell (Veronica hederaefolia), spring wheat (Triticum aestivum), winter wheat (Triticum aestivum), wild buckwheat (Polygonum convolvulus), wild mustard (Sinapis arvensis), wild oat (Avena fatua), windgrass (Apera spica-venti) and winter barley (Hordeum vulgare).
(§3) Treated plants and untreated controls were maintained in a greenhouse for approximately 21 to 28 days, after which all treated plants were compared to untreated controls and visually evaluated. Plant response ratings, summarized in Table D, are based upon a 0 to 100 scale where 0 is no effect and 100 is complete control. A dash response (−) means no test result.

The test system of experiment [2] is deadnettle (Lamium amplexicaule). Kind of experiment: Test D. On the set-up: key: 0 is no effect; 100 is complete control. Particulars: POSTEMERGENCE
The procedure: as §1, §2, §3

Experiment [3] relates to rape (Brassica napus). Kind of experiment: Test D. On the set-up: key: 0 is no effect; 100 is complete control. Particulars: POSTEMERGENCE
The protocol:
as §1, §2, §3

Experiment [4] has as its system annual bluegrass (Poa annua). Kind of experiment: Test D. The arrangement: key: 0 is no effect; 100 is complete control. Particulars: PREEMERGENCE
Experiment [5] has as its system common poppy (Papaver rhoeas). Kind of experiment: Test D. On the set-up: key: 0 is no effect; 100 is complete control. Particulars: PREEMERGENCE
The subject of experiment [6] is galium 2 (Galium aparine). The experiment can be described thus: Test D. The arrangement: key: 0 is no effect; 100 is complete control. The note with it: PREEMERGENCE
The subject of experiment [7] is green foxtail (Setaria viridis). Kind of experiment: Test D. Particulars: PREEMERGENCE
The arrangement: key: 0 is no effect; 100 is complete control.

Experiment [8] deals with Italian ryegrass (Lolium multiflorum). Kind of experiment: Test D. The note with it: PREEMERGENCE
Experiment [9] deals with jointed goatgrass (Aegilops cylindrica). Kind of experiment: Test D. Particulars: PREEMERGENCE
On the set-up: key: 0 is no effect.

Experiment [10] relates to littleseed canarygrass (Phalaris minor). The experiment can be described thus: Test D. Particulars: PREEMERGENCE
Experiment [11] has as its system sunflower (Helianthus annuus). The experiment can be described thus: Test D. The note with it: PREEMERGENCE
The test system of experiment [12] is wild buckwheat (Polygonum convolvulus). The experiment can be described thus: Test D. Particulars: PREEMERGENCE
Experiment [13] concerns windgrass (Apera spica-venti). The experiment can be described thus: Test D. On the set-up: key: 0 is no effect; 100 is complete control. The note with it: PREEMERGENCE
The subject of experiment [14] is field violet (Viola arvensis). The experiment can be described thus: Test D. Particulars: PREEMERGENCE
In experiment [15] the test system is Russian thistle (Salsola kali). The experiment can be described thus: Test D. The note with it: PREEMERGENCE
For experiment [16], the system named is kochia (Kochia scoparia). Kind of experiment: Test E pre-/postemergence/post directed. The arrangement: key: 0 is no effect; 100 is complete control. Particulars: PREEMERGENCE
In a few lines:
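Injury was scored visually on a 0 to 100 scale (100 = complete control) 13 to 21 days after treatment of greenhouse-grown plants. Test chemicals, in a surfactant-containing non-phytotoxic solvent, were sprayed onto soil within a day of planting, onto plants at the two to four leaf stage, or directed at the base of the plants.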

In the case of `CCc1cnc(-c2ccc(C(F)(F)F)cc2)nc1Cc1cccc(C(F)(F)F)c1` [Compound 22], the “Plant response rating, Chickweed” value in experiment [1] (Rate 62 g/ha) is 60; in experiment [1] (Rate 125 g/ha), 100. In addition, the “Plant response rating, Deadnettle” value is 50 in experiment [2] (Rate 62 g/ha) and 90 in experiment [2] (Rate 125 g/ha). The “Plant response rating, Rape” value in [3] (Rate 62 g/ha) and in experiment [3] (Rate 125 g/ha) was 90 throughout. In addition, the figures for the “Plant response rating, Annual bluegras” value in experiment [4] (Rate 62 g/ha), in experiment [4] (Rate 125 g/ha) and in experiment [4] (Rate 250 g/ha) were 20, 100 and 50, respectively. Also, the “Plant response rating, Common poppy” value in [5] (Rate 62 g/ha) is 60; in experiment [5] (Rate 125 g/ha) it was 70; in experiment [5] (Rate 250 g/ha) it was 70. Further, the “Plant response rating, Galium” value stood at 20 in experiment [6] (Rate 62 g/ha), 100 in experiment [6] (Rate 125 g/ha) and 30 in [6] (Rate 250 g/ha). In addition, the “Plant response rating, Green foxtail” value amounted to 10 in experiment [7] (Rate 62 g/ha), 100 in experiment [7] (Rate 125 g/ha) and 100 in experiment [7] (Rate 250 g/ha). The “Plant response rating, I. Ryegrass” value in [8] (Rate 125 g/ha) is reported as 65; in experiment [8] (Rate 250 g/ha), 75. In addition, the “Plant response rating, Jointed goatgra” value is 0 in experiment [9] (Rate 62 g/ha), 20 in experiment [9] (Rate 125 g/ha) and 10 in experiment [9] (Rate 250 g/ha). The “Plant response rating, LS canarygrass” value in [10] (Rate 62 g/ha) turned out to be 20; in experiment [10] (Rate 125 g/ha), 60; in [10] (Rate 250 g/ha) it was 50. The “Plant response rating, Sunflower” value in experiment [11] (Rate 62 g/ha) amounted to 20; in [11] (Rate 125 g/ha), 10; in [11] (Rate 250 g/ha), 30. Besides, the “Plant response rating, Wild buckwheat” value in experiment [12] (Rate 125 g/ha) is reported as 55; in experiment [12] (Rate 250 g/ha) it was 30. The “Plant response rating, Windgrass” value is on record as 20 in experiment [13] (Rate 62 g/ha), 70 in experiment [13] (Rate 125 g/ha) and 30 in [13] (Rate 250 g/ha).
On to `Cc1cnc(-n2cnc(C(F)(F)F)n2)nc1Cn1ccc(C(F)(F)F)n1` [Compound 51], for which the “Plant response rating, Annual bluegras” value worked out at 85 in [4] (Rate 31 g/ha) and 100 in [4] (Rate 62 g/ha). Moreover, the “Plant response rating, Common poppy” value in experiment [5] (Rate 31 g/ha) and in experiment [5] (Rate 62 g/ha) was 100 in each case. Also, the “Plant response rating, Field violet” value in experiment [14] (Rate 31 g/ha) and in [14] (Rate 62 g/ha) was 65 in each case. For the same compound, the “Plant response rating, Galium” value in experiment [6] (Rate 31 g/ha) and in [6] (Rate 62 g/ha) was 100 each time. For the same compound, the “Plant response rating, Green foxtail” value in experiment [7] (Rate 31 g/ha) and in experiment [7] (Rate 62 g/ha) was 100 throughout. Further, the “Plant response rating, I. Ryegrass” value in experiment [8] (Rate 31 g/ha) was 60; in experiment [8] (Rate 62 g/ha), 90. In addition, the “Plant response rating, Jointed goatgra” value worked out at 60 in experiment [9] (Rate 31 g/ha) and 90 in experiment [9] (Rate 62 g/ha). The “Plant response rating, LS canarygrass” value in [10] (Rate 31 g/ha) is on record as 80; in experiment [10] (Rate 62 g/ha), 90. Moreover, the “Plant response rating, Russian thistle” value in experiment [15] (Rate 31 g/ha) came to 60; in experiment [15] (Rate 62 g/ha), 70. Moreover, the “Plant response rating, Sunflower” value in experiment [11] (Rate 31 g/ha) and in [11] (Rate 62 g/ha) was 40 each time. The “Plant response rating, Wild buckwheat” value in experiment [12] (Rate 31 g/ha) and in experiment [12] (Rate 62 g/ha) was 90 in each case. Besides, the “Plant response rating, Windgrass” value in experiment [13] (Rate 31 g/ha) and in experiment [13] (Rate 62 g/ha) was 100 throughout.
On to `Cc1cnc(-c2ccc(C(F)(F)F)cc2)nc1Cc1cccc(OC(F)(F)F)c1` [Compound 15], for which the “Plant response rating, Kochia” value in experiment [16] (Rate 32 g/ha) is given as 60; in experiment [16] (Rate 64 g/ha), 75; in [16] (Rate 125 g/ha), 95; in experiment [16] (Rate 250 g/ha), 100.
